In patent US20230064990A1, “DOSING REGIMENS AND METHODS FOR TREATING CANCER” (Panbela Therapeutics, Inc., priority 2020, published 2023):

Tests used:
[1] = Phase 1 monotherapy dose escalation study, safety and tolerability
Experimental: Safety and tolerability were evaluated by clinical and laboratory assessments. PK was evaluated on Days 1 and 18 of cycle 1. Efficacy was assessed by RECIST criteria and overall survival.

[2] = Phase 1 monotherapy dose escalation study, pharmacokinetics; assay type: in vivo, human; conditions: 0.05-0.8 mg/kg subcutaneous; Days 1 and 18 of cycle 1
[3] = tested on: locally advanced or metastatic PDA; assay: Phase 1 monotherapy dose escalation study, efficacy (RECIST, overall survival); assay type: in vivo, human
Experimental: Efficacy was assessed by RECIST criteria and overall survival.

[4] = Phase 1a/1b study in combination with G and A, safety; assay type: in vivo, human
Experimental: G (1000 mg/m^2) and A (125 mg/m^2) were administered intravenously on Days 1, 8, and 15 of each cycle. […] PK was evaluated on day 1 of cycle 1. Efficacy was assessed by CA19-9 levels, objective response was assessed by RECIST criteria, progression-free survival (PFS) and overall survival (OS).
This is a multicenter, open label, Phase 1a/1b study to evaluate to evaluate the safety, tolerability, pharmacokinetics and efficacy of (S,S)-(HO)2DEHSPM when administered in combination with G and A as first-line therapy in pancreatic cancer patients previously untreated for metastatic disease. The objective was to determine a recommended Phase 2 dose. Using a modified 3+3 dose escalation scheme, cohorts of subjects were dosed with subcutaneous injections of (S,S)-(HO)2DEHSPM at 0.2, 0.4 or 0.6 mg/kg days 1-5 of each 28-day cycle. Gemcitabine (1000 mg/m^2) and A (125 mg/m^2) were administered intravenously on Days 1, 8, and 15 of each cycle. […] PK was evaluated on day 1 of cycle 1. Efficacy was assessed by objective response rate (ORR) using RECIST criteria and by changes in CA19-9 levels. Subjects were treated until disease progression or the development of dose-limiting toxicity. Based upon initial safety findings and preliminary signals of efficacy, the protocol was amended to evaluate progression-free survival (PFS) and overall survival (OS) and expand the study to up to 36 subjects at the recommended Phase 2 dose. To date, 20 subjects were enrolled in cohorts 1-3 and evaluated for dose limiting toxicity and early signals of efficacy.

[5] = tested on: six human PDA cell lines; assay: Cell proliferation in six human PDA cell lines; assay type: cell-based
Experimental: AsPC-1, BxPC-3, Capan-1, HPAF-II, MIA PaCa-2 and PANC-1 cells were seeded in 96-well plates and allowed to adhere overnight. After 24 h fresh media was added containing 0.5-10 μM concentrations of (S,S)-(HO)2DEHSPM alone or +0.5 μM GEM, +5 nM NAB, or + both, or containing GEM, NAB or GEM+NAB alone. Cell proliferation was measured in triplicate 24, 48, 72 and 96 h post-treatment and IC50 values were calculated.

[6] = N=20, (S,S)-(HO)2DEHSPM with G + A
[7] = N=20, in combination with G + A

SMILES: CCNCCC(O)CNCCCCNCC(O)CCNCC [(S,S)-(HO)2DEHSPM, (6S,15S)-3,8,13,18-teraazaicosane-6,15-diol]
- drug-related bone marrow suppression or peripheral neuropathy ([1]; any dose): No drug-related bone marrow suppression or peripheral neuropathy was seen at any dose
- focal pancreatitis at the site of the tumor ([1]; cohort 4 (0.4 mg/kg), at 2.3 months): one patient in cohort 4 developed focal pancreatitis
- DLTs ([1]; cohort 5 (0.8 mg/kg), N=10): Three patients in cohort 5 developed serious adverse events considered dose limiting toxicities
- DLTs ([1]; cohorts 1-4 (0.05-0.4 mg/kg)): No DLTs occurred
- drug-related serious adverse events (SAEs) or dose limiting toxicities (DLTs) ([1]; up to 0.4 mg/kg/day Monday through Friday×3 weeks (TCD~6 mg/kg per 8 week cycle)): No drug-related serious adverse events (SAEs) or dose limiting toxicities (DLTs) were observed
- Plasma Cmax and AUC0-t versus dose [2]: increased linearly with dose
- Stable disease ([3]; cohort 3 (0.2 mg/kg), N=4): 2 patients
- Median survival ([3]; cohort 3 (0.2 mg/kg), N=4, heavily pre-treated PDA patients): 5.9 months
- Stable disease ([3]; cohort 4 (0.4 mg/kg), N=7): 2 patients
- Stable disease ([3]; cohort 5 (0.8 mg/kg), N=10): 4 patients
- Grade ≥3 Anemia related to the named study medication (subjects) ([4]; N=20): 0
- Grade ≥3 Dehydration related to the named study medication (subjects) ([4]; N=20): 0
- Grade ≥3 Delirium related to the named study medication (subjects) ([4]; N=20): 0
- Grade ≥3 Dyspnea related to the named study medication (subjects) ([4]; N=20): 0
- Grade ≥3 Elevated LFTs related to the named study medication (subjects) ([4]; N=20): 4
- Grade ≥3 Elevated Lipase related to the named study medication (subjects) ([4]; N=20): 1
- Grade ≥3 Fatigue related to the named study medication (subjects) ([4]; N=20): 0
- Grade ≥3 Hiccups (Intractable) related to the named study medication (subjects) ([4]; N=20): 0
- Grade ≥3 Hyponatremia related to the named study medication (subjects) ([4]; N=20): 0
- Grade ≥3 Neutropenia related to the named study medication (subjects) ([4]; N=20): 0
- Grade ≥3 Thrombocytopenia related to the named study medication (subjects) ([4]; N=20): 0
- Grade ≥3 Anemia related to any study medication, Total (%) [4, 6]: (15%)
- Grade ≥3 Anemia related to any study medication, Total N [4, 6]: 3
- Grade ≥3 Dehydration related to any study medication, Total (%) [4, 6]: (5%)
- Grade ≥3 Dehydration related to any study medication, Total N [4, 6]: 1
- Grade ≥3 Delirium related to any study medication, Total (%) [4, 6]: (5%)
- Grade ≥3 Delirium related to any study medication, Total N [4, 6]: 1
- Grade ≥3 Dyspnea related to any study medication, Total (%) [4, 6]: (5%)
- Grade ≥3 Dyspnea related to any study medication, Total N [4, 6]: 1
- Grade ≥3 Elevated LFTs related to any study medication, Total (%) [4, 6]: (20%)
- Grade ≥3 Elevated LFTs related to any study medication, Total N [4, 6]: 4
- Grade ≥3 Elevated Lipase related to any study medication, Total (%) [4, 6]: (5%)
- Grade ≥3 Elevated Lipase related to any study medication, Total N [4, 6]: 1
- Grade ≥3 Fatigue related to any study medication, Total (%) [4, 6]: (5%)
- Grade ≥3 Fatigue related to any study medication, Total N [4, 6]: 1
- Grade ≥3 Hiccups (Intractable) related to any study medication, Total (%) [4, 6]: (5%)
- Grade ≥3 Hiccups (Intractable) related to any study medication, Total N [4, 6]: 1
- Grade ≥3 Hyponatremia related to any study medication, Total (%) [4, 6]: (5%)
- Grade ≥3 Hyponatremia related to any study medication, Total N [4, 6]: 1
- Grade ≥3 Neutropenia related to any study medication, Total (%) [4, 6]: (30%)
- Grade ≥3 Neutropenia related to any study medication, Total N [4, 6]: 6
- Grade ≥3 Thrombocytopenia related to any study medication, Total (%) [4, 6]: (5%)
- Grade ≥3 Thrombocytopenia related to any study medication, Total N [4, 6]: 1
- Grade ≥ 3 Anemia, % [4, 7]: 15%
- Grade ≥ 3 Diarrhea, % [4, 7]: 0%
- Grade ≥ 3 Fatigue, % [4, 7]: 5%
- Grade ≥ 3 Leukopenia (G3-4), % [4, 7]: 15%
- Grade ≥ 3 Neutropenia (G3-4), % [4, 7]: 30%
- Grade ≥ 3 Peripheral Neuropathy, % [4, 7]: 0%
- Grade ≥ 3 Thrombocytopenia, % [4, 7]: 5%
- Diarrhea, Grade 1 (related AE, subjects) ([4]; N=20, with G+A): 1
- Diarrhea, Grade 2 (related AE, subjects) ([4]; N=20, with G+A): 1
- Diarrhea, Grade 3 (related AE, subjects) ([4]; N=20, with G+A): 0
- Diarrhea, Grade 4 (related AE, subjects) ([4]; N=20, with G+A): 0
- Diarrhea, Grade 5 (related AE, subjects) ([4]; N=20, with G+A): 0
- Diarrhea, Total (%) (related AE) ([4]; N=20, with G+A): 10%
- Diarrhea, Total N (related AE) ([4]; N=20, with G+A): 2
- Elevated Liver Function Tests (LFTs), Grade 1 (related AE, subjects) ([4]; N=20, with G+A): 0
- Elevated Liver Function Tests (LFTs), Grade 2 (related AE, subjects) ([4]; N=20, with G+A): 0
- Elevated Liver Function Tests (LFTs), Grade 3 (related AE, subjects) ([4]; N=20, with G+A): 3
- Elevated Liver Function Tests (LFTs), Grade 4 (related AE, subjects) ([4]; N=20, with G+A): 1
- Elevated Liver Function Tests (LFTs), Grade 5 (related AE, subjects) ([4]; N=20, with G+A): 0
- Elevated Liver Function Tests (LFTs), Total (%) (related AE) ([4]; N=20, with G+A): 20%
- Elevated Liver Function Tests (LFTs), Total N (related AE) ([4]; N=20, with G+A): 4
- Fatigue, Grade 1 (related AE, subjects) ([4]; N=20, with G+A): 4
- Fatigue, Grade 2 (related AE, subjects) ([4]; N=20, with G+A): 3
- Fatigue, Grade 3 (related AE, subjects) ([4]; N=20, with G+A): 1
- Fatigue, Grade 4 (related AE, subjects) ([4]; N=20, with G+A): 0
- Fatigue, Grade 5 (related AE, subjects) ([4]; N=20, with G+A): 0
- Fatigue, Total (%) (related AE) ([4]; N=20, with G+A): 40%
- Fatigue, Total N (related AE) ([4]; N=20, with G+A): 8
- Injection site pain, Grade 1 (related AE, subjects) ([4]; N=20, with G+A): 4
- Injection site pain, Grade 2 (related AE, subjects) ([4]; N=20, with G+A): 0
- Injection site pain, Grade 3 (related AE, subjects) ([4]; N=20, with G+A): 0
- Injection site pain, Grade 4 (related AE, subjects) ([4]; N=20, with G+A): 0
- Injection site pain, Grade 5 (related AE, subjects) ([4]; N=20, with G+A): 0
- Injection site pain, Total (%) (related AE) ([4]; N=20, with G+A): 20%
- Injection site pain, Total N (related AE) ([4]; N=20, with G+A): 4
- Nausea, Grade 1 (related AE, subjects) ([4]; N=20, with G+A): 1
- Nausea, Grade 2 (related AE, subjects) ([4]; N=20, with G+A): 1
- Nausea, Grade 3 (related AE, subjects) ([4]; N=20, with G+A): 0
- Nausea, Grade 4 (related AE, subjects) ([4]; N=20, with G+A): 0
- Nausea, Grade 5 (related AE, subjects) ([4]; N=20, with G+A): 0
- Nausea, Total (%) (related AE) ([4]; N=20, with G+A): 10%
- Nausea, Total N (related AE) ([4]; N=20, with G+A): 2
- liver enzyme elevation ([4]; interim, one patient in cohort 2 (0.4 mg/kg), with G and A): grade 3-4 reversible liver enzyme elevation
- (S,S)-(HO)2DEHSPM-related bone marrow suppression or peripheral neuropathy ([4]; interim, with G and A): no evidence of (S,S)-(HO)2DEHSPM-related bone marrow suppression or peripheral neuropathy
- reversibility of (S,S)-(HO)2DEHSPM-related increases in liver toxicity ([4]; when administration was interrupted and dose-reduced or discontinued): reversed in all but one subject
- anti-proliferative effect ([5]; 0.5-10 μM, maximal inhibition most often with 10 μM): anti-proliferative effect in all cell lines
- inhibition by (S,S)-(HO)2DEHSPM alone compared with GEM+NAB ([5]; ASPC-1, BxPC-3 and Capan-1 cells, p<0.005): greater inhibition than GEM+NAB
